Reference: patent publication US20240116985A1, “STAPLED PEPTIDES AND METHODS THEREOF” (priority 2020, published 2024)
In brackets after ≈: the same amount, converted by molar mass.

Assays:
HEK293 cells = assay: in vitro; type: cell-based; conditions: human
Experimental: (§1) On Day 3, fluorescence was read with Nano-BRET substrates. Remove plates from incubator to allow to reach to RT (30 min). Also equilibrate CTG reagent to Rm Temp. Dilute Nano-BRET substrate 1:100 in Assay media. Add 25 uL of diluted substrate to each well and shake for 30 seconds. Read on ClarioSTAR or GloMAX right away (within 10 min). Donor emission @ 460 nm. Acceptor emission @ 618 nm. Use the same plate to measure cell viability (Cell Titer-Glo-2.0 (CTG) Viability test). After reading BRET signal, add CTG reagent to each well at 1:2 ratio and shake on orbital shaker for 2 min. Incubate at Rm Temp for 10-30 min. Read luminescence on ClarioSTAR or GloMAX. Analysis was performed using Prism. Non-linear regression. Log (inhibitor) vs response—variable slope (four parameters). For CTG data linear values (not logarithmic).

in vitro = type: cell-based; conditions: human, HEK293 cells, CTG (CellTiter Glo) Relative to Media
Experimental: as §1

CHI Log D procedure = type: physicochemical; conditions: pH 7.4, CHI Log D
[1] = system: TCF/LEF luciferase Reporter in DLD1 cells; assay: TCF reporter assay (DLD1 TCF/LEF luciferase reporter, Bright-Glo); type: cell-based; conditions: read-out: DLD1 4% Abs IC50; DLD1 4%
Outline: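 Readouts: Bright-Glo luciferase for reporter signal and CellTiter-Glo for cell viability, with absolute IC50 derived. The reporter clone came from lentiviral TCF/LEF-luciferase transduction of DLD1 cells, seeded 5000 cells/well in RPMI with 4% FBS and exposed overnight to serially diluted compounds.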

Solubility in PBS = type: physicochemical; conditions: Solubility (uM)
Outline: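 Read-out is the HPLC peak area of the supernatant from ultracentrifuged PBS solution, scaled against a 50 μM peptide DMSO injection; value reported as [(PBS area)/(DMSO area)]*50 uM.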

CC(=O)N1CCC[C@]12CC=CCCCC1(CCCC=CCCCOC(=O)N3CC[C@@](C(=O)N[C@@H](Cc4ccsc4)C(=O)N[C@@H](Cc4csc5ccccc45)C(=O)N[C@@H](CCC(N)=O)C(=O)N[C@H](C)C(N)=O)(C3)NC(=O)[C@H](CC(N)=O)NC(=O)[C@H](Cc3ccccc3)NC(=O)[C@H](C)NC(=O)[C@H](C)NC(=O)[C@H](CC(=O)O)NC(=O)[C@H](CC(=O)O)NC1=O)NC(=O)[C@H](CC(C)(C)C)NC(=O)[C@H](CC(=O)O)NC2=O (stereo partly drawn) [I-822, Ac-PL3-Asp-Npg-B5-Asp-Asp-Ala-Ala-Phe-Asn-PyrS2-3Thi-BztA-Gln-dAla-NH2]
CTG (CellTiter Glo) Relative to Media (HEK293 cells; 1.25 µM): 98 | CTG (CellTiter Glo) Relative to Media (HEK293 cells; 2.5 µM): 98 | CTG (CellTiter Glo) Relative to Media (HEK293 cells; 5 µM): 95 | CTG (CellTiter Glo) Relative to Media (HEK293 cells; 10 µM): 92 | viability at 0.625 µM (in vitro): 100% | viability at 1.25 µM (in vitro): 94% | viability at 2.5 µM (in vitro): 99% | viability at 5 µM (in vitro): 94% | viability at 10 µM (in vitro): 90% | viability at 20 µM (in vitro): 82% | chromatographic logD (CHI Log D procedure): 2.03 | IC50 [1]: 7.2 µM | Solubility (Solubility in PBS): 46 µM (≈ 91.5 µg/mL)
